In patent US9480252B2, “Herbicidal compositions” (Syngenta Crop Protection LLC, priority 2007, dated 2016):

Key:
Brachiaria plantaginea [1] = test: Glasshouse trial, control of Brachiaria, pre-emergence test; assay type: in vivo; conditions: TXP (where applied) 200 g ai/ha, 20 DAA
Protocol: (§1) A glasshouse trial was carried out to test the activity of mesotrione or the compound of formula I (each at 3 different rates) in combination with trinexapac-ethyl at 200 gai/ha against Brachiaria plantaginea. Brachiaria seeds were sown in standard potting mix in 50 cm plastic troughs. The adjuvant system was X-77 at 0.1% v/v in deionised water. 500 liters of herbicide/adjuvant system was used per hectare. General weed control was evaluated at 15 days after application (DAA) for the post-emergence test and 20DAA for the pre-emergence test. It is noted that all herbicides were applied at reduced field rates because herbicide effects are magnified in a glasshouse environment. Rates were chosen to give a 50 to 70% level of control with herbicides applied alone as this allows for detection of any synergistic effect when tank mixtures are used.

Brachiaria plantaginea [2] = test: Glasshouse trial, control of Brachiaria, post-emergence test; assay type: in vivo; conditions: TXP (where applied) 200 g ai/ha, 15 DAA
Protocol: as §1

Compound | % Control at different herbicide rates (Brachiaria plantaginea [1]; herbicide rate 30 g ai/ha) [%] | % Control at different herbicide rates (Brachiaria plantaginea [1]; herbicide rate 60 g ai/ha) [%] | % Control at different herbicide rates (Brachiaria plantaginea [1]; herbicide rate 125 g ai/ha) [%] | % Control at different herbicide rates (Brachiaria plantaginea [2]; herbicide rate 30 g ai/ha) [%] | % Control at different herbicide rates (Brachiaria plantaginea [2]; herbicide rate 60 g ai/ha) [%] | % Control at different herbicide rates (Brachiaria plantaginea [2]; herbicide rate 125 g ai/ha) [%]
COCCOCc1nc(C(F)(F)F)ccc1C(=O)C1=C(O)C2CCC(C2)C1=O (stereo not drawn) [Formula I] | 30 | 80 | 90 | 60 | 70 | 80
CCOC(=O)C1CC(=O)C(=C(O)C2CC2)C(=O)C1 (stereo not drawn) [TXP, trinexapac-ethyl] | 0 | 0 | 0 | 0 | 0 | 0
CS(=O)(=O)c1ccc(C(=O)C2C(=O)CCCC2=O)c([N+](=O)[O-])c1 [Mesotrione, mesotrione] | 30 | 50 | 80 | 30 | 70 | 70
